Measured values from publication PMC6479946 (Molecules, 2019).

What was measured:
[1] = oral administration of 40.0 mg/kg HAR; cited from earlier work
in vivo = conditions: rat plasma, n = 8, mean ± SD; for AUC(0-t) / AUC(0-inf) / CL/F / Cmax / k el / MRT / Tmax: male, Sprague-Dawley, rat, in vivo, po; for AUC(0-t): AUC(0-t) of HAR; for AUC(0-inf): AUC(0-∞) of HAR; for CL/F: CL/F of HAR; for Cmax: Cmax of HAR; for k el: Ke of HAR; for MRT: MRT of HAR; for Tmax: Tmax of HAR
Description: The analytes were separated on an ACQUITY UPLC BEH C18 column (2.1 mm × 50 mm, 1.7 μm, Waters, Milford, USA). […] The flow rate was 0.3 mL/min. The column and sample-tray temperature were kept at 40 °C and 4 °C, respectively. The injection volume was 5.0 μL using a partial loop with needle over fill mode.
The compound dependent parameters used for analysis were summarized in Supplementary materials Table S1.
A rapid and convenient precipitation method was used to prepare the plasma samples. A 100 μL aliquot of plasma sample was spiked with 100 μL of IS solution and 300 μL of methanol in a 1.5 mL centrifuge tube; subsequently, the mixtures were vortex-mixed for 30.0 s and then centrifuged at 1.5 × 10^4× g for 10 min at 4 °C. A 100 μL aliquot of supernatant was combined with 25.0 μL of 0.1% formic acid water in a clean centrifuge tube and then vortex-mixed for 30 s. A 5.0 μL aliquot of mixture was injected into the UPLC-MS/MS system for analysis.
Fifty-six pathogen-free male adult rats were randomly divided into seven groups with eight rats in each group for pharmacokinetic study. […] One group was intragastrically administered with MEM hydrochloride 5.0 mg/kg dissolved in ultrapure water, namely, MEM group. […] The blood samples were immediately centrifuged at 4.0 × 10^3× g at […] for 10 min, and 100 μL of the supernatant plasma was transferred into another new 1.5 mL centrifuge tube and stored at −20 °C until UPLC-MS/MS analysis.
All standard curves and quantitative data were processed by Agilent Mass Hunter Quantitative Analysis Workstation Software. […] All the pharmacokinetic parameters were processed using the non-compartmental pharmacokinetics data analysis software program PK solutions 2.0^TM (Summit Research Services, USA). […] The AUC(0-t) was obtained by the linear/logarithmic trapezoidal rule, and the area under the plasma concentration versus time curve from zero to infinity (AUC(0-∞)) was calculated by means of the trapezoidal rule with extrapolation to infinity with a terminal elimination rate constant. The Pearson correlation coefficient analysis was processed by IBM SPSS Statistics Version 21. A statistical analysis was performed using analysis of variance with α = 0.05 as the minimal level of significance.

[2] = 20 mg/kg, oral HAR 20.0 mg/kg + MEM 5.0 mg/kg (HAR-L + MEM)
[3] = 20 mg/kg, oral HAR 20.0 mg/kg alone (HAR-L)
[4] = 40 mg/kg, oral HAR 40.0 mg/kg + MEM 5.0 mg/kg (HAR-M + MEM)
[5] = 40 mg/kg, oral HAR 40.0 mg/kg alone (HAR-M)
[6] = 80 mg/kg, oral HAR 80.0 mg/kg + MEM 5.0 mg/kg (HAR-H + MEM)
[7] = 80 mg/kg, oral HAR 80.0 mg/kg alone (HAR-H)
[8] = oral HAR 20.0 mg/kg + MEM 5.0 mg/kg (HAR-L + MEM)
[9] = oral HAR 20.0 mg/kg alone (HAR-L)
[10] = oral HAR 40.0 mg/kg + MEM 5.0 mg/kg (HAR-M + MEM)
[11] = oral HAR 40.0 mg/kg alone (HAR-M)
[12] = oral HAR 80.0 mg/kg + MEM 5.0 mg/kg (HAR-H + MEM)
[13] = oral HAR 80.0 mg/kg alone (HAR-H)

## COc1ccc2c(c1)[nH]c1c(C)nccc12 [HAR, 7-methoxy-1-methyl-9H-pyrido [3,4-β] indole]
[1]
  maximum peak concentration (Cmax) of HAR: 67.1 ± 34.3 ng/mL
In vivo; [2]
  AUC(0-t): 141 ± 56.7 ng·h/mL
  AUC(0-inf): 158 ± 65.4 ng·h/mL
  CL/F: 158 L/h/kg
  Cmax: 64.5 ± 14.7 ng/mL
  k el: 8.67e-05 s⁻¹
  MRT: 4.02 ± 1.96 h
  Tmax: 0.5 ± 0.267 h
In vivo; [3]
  AUC(0-t): 74.9 ± 36.3 ng·h/mL
  AUC(0-inf): 83.1 ± 38.9 ng·h/mL
  CL/F: 323 L/h/kg
  Cmax: 31.4 ± 16.3 ng/mL
  k el: 0.000119 s⁻¹
  MRT: 3.36 ± 1.38 h
  Tmax: 0.5 ± 0.267 h
In vivo; [4]
  AUC(0-t): 139 ± 40.6 ng·h/mL
  AUC(0-inf): 153 ± 43.1 ng·h/mL
  CL/F: 278 L/h/kg
  Cmax: 86.6 ± 31 ng/mL
  k el: 4.83e-05 s⁻¹
  MRT: 3.28 ± 1.02 h
  Tmax: 0.24 ± 0.129 h
In vivo; [5]
  AUC(0-t): 100 ± 44.8 ng·h/mL
  AUC(0-inf): 109 ± 47.9 ng·h/mL
  CL/F: 431 L/h/kg
  Cmax: 77 ± 53.8 ng/mL
  k el: 0.000132 s⁻¹
  MRT: 2.83 ± 1.41 h
  Tmax: 0.365 ± 0.271 h
In vivo; [6]
  AUC(0-t): 1060 ± 540 ng·h/mL
  AUC(0-inf): 1110 ± 508 ng·h/mL
  CL/F: 91.2 L/h/kg
  Cmax: 755 ± 298 ng/mL
  k el: 0.000127 s⁻¹
  MRT: 2.88 ± 1.93 h
  Tmax: 0.448 ± 0.63 h
In vivo; [7]
  AUC(0-t): 502 ± 180 ng·h/mL
  AUC(0-inf): 587 ± 275 ng·h/mL
  CL/F: 163 L/h/kg
  Cmax: 368 ± 253 ng/mL
  k el: 0.000116 s⁻¹
  MRT: 3.17 ± 1.48 h
  Tmax: 0.344 ± 0.186 h
In vivo; [8]
  Ka of HAR: 1.91 ± 2.46 h⁻¹
  T1/2a of HAR: 1.57 ± 2.28 h
  T1/2e of HAR: 2.89 ± 2.26 h
  T1/2d of HAR: 1.22 ± 1.24 h
  Vd of HAR: 59.0 ± 35.1 (L/kg) × 10
In vivo; [9]
  Ka of HAR: 1.66 ± 2.27 h⁻¹
  T1/2a of HAR: 1.29 ± 1.25 h
  T1/2e of HAR: 2.05 ± 1.11 h
  T1/2d of HAR: 2.14 ± 2.57 h
  Vd of HAR: 80.3 ± 39.2 (L/kg) × 10
In vivo; [10]
  Ka of HAR: 1.52 ± 1.08 h⁻¹
  T1/2a of HAR: 1.18 ± 1.22 h
  T1/2e of HAR: 4.33 ± 1.31 h
  T1/2d of HAR: 2.33 ± 2.71 h
  Vd of HAR: 172 ± 61.6 (L/kg) × 10
In vivo; [11]
  Ka of HAR: 2.69 ± 2.60 h⁻¹
  T1/2a of HAR: 0.529 ± 0.478 h
  T1/2e of HAR: 2.28 ± 1.86 h
  T1/2d of HAR: 0.960 ± 0.734 h
  Vd of HAR: 136 ± 105 (L/kg) × 10
In vivo; [12]
  Ka of HAR: 2.93 ± 2.06 h⁻¹
  T1/2a of HAR: 0.357 ± 0.228 h
  T1/2e of HAR: 3.21 ± 3.17 h
  T1/2d of HAR: 1.40 ± 1.74 h
  Vd of HAR: 60.3 ± 89.6 (L/kg) × 10
In vivo; [13]
  Ka of HAR: 2.80 ± 2.74 h⁻¹
  T1/2a of HAR: 0.605 ± 0.546 h
  T1/2e of HAR: 2.35 ± 1.44 h
  T1/2d of HAR: 1.36 ± 1.37 h
  Vd of HAR: 51.4 ± 33.1 (L/kg) × 10
